Molecular target: T1, 11β-HSD1 (Homo sapiens, UniProt P28845)
T1 construct: detecting cortisol generated from cortisterone by human liver microsomes; from tissue; host or cells: human liver microsomes
Assay: In vitro inhibition of 11β-HSD1, HTRF detection of cortisol generated from cortisone by human liver microsomes
Assay type: biochemical
Details: 11β-HSD IC50 (nM), 1 hour at 37° C., pH 6.0, NADPH 200 μM, cortisone 80 nM, inhibition relative to carbenoxolone signal
Summary of the method: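 Inhibition expressed against the carbenoxolone signal and fitted to IC50 curves. Readout: HTRF competition between microsomal cortisol and XL665-labelled cortisol for Eu-cryptate anti-cortisol antibody (typically 2 h), with emission ratio 665/615 calibrated to cortisol concentration.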

T1 sequence (P28845 whole entry): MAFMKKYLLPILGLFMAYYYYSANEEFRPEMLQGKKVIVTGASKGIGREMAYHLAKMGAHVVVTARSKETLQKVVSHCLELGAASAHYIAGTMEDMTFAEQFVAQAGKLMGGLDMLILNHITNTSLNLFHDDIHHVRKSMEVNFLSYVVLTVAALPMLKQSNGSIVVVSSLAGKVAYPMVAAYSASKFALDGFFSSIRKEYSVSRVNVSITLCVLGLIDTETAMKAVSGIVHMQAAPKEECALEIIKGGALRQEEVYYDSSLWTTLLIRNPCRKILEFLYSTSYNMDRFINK

SMILES	IC50
CC1(C)[C@H]2Cc3c(O)cccc3[C@]1(C)CCN2C(=O)c1ccc(CN2CCOCC2=O)cc1 [Example 207, 4-[(2R,6S)-4-(10-Hydroxy-6,11,11-trimethyl 1,2,5,6-tetrahydro-4H-2,6-methano-benzo[d]azocine-3-carbonyl)-benzyl]-morpholin-3-one]	224 nM
CC(C)(C)c1nc2cc3c(cc2[nH]1)[C@]1(C)CCN(C(=O)c2ccc4nc[nH]c4c2)[C@H](C3)C1(C)C [Example 273, (3H-Benzoimidazol-5-yl)-[(6R,10S)-2-tert-butyl-5,6,7,8,9,10-hexahydro-10,12,12-trimethyl-6,10-methano-imidazo[5,4-i][3]benzazocin-7-yl]-methanone]	35 nM
Cc1cc(C(=O)N2CC[C@@]3(C)c4cccc(O)c4C[C@@H]2C3(C)C)n(C)n1 [Example 215, (2,5-Dimethyl-2H-pyrazol-3-yl)-[(2R,6S)-10-hydroxy-6,11,11-trimethyl-1,2,5,6-tetrahydro-4H-2,6-methano-benzo[d]azocin-3-yl]-methanone]	1730 nM
CC1(C)[C@H]2Cc3ccccc3[C@]1(C)CCN2C(=O)c1c(F)c(F)c(N)c(F)c1F [Example 281, (4-Amino-2,3,5,6-tetrafluoro-phenyl)-[(2R,6S)-6,11,11-trimethyl-1,2,5,6-tetrahydro-4H-2,6-methano-benzo[d]azocin-3-yl]-methanone]	918 nM
CC(=O)c1ccc(C(=O)N2CC[C@@]3(C)c4cccc(O)c4C[C@@H]2C3(C)C)cc1 [Example 28, 1-{4-[(2R,6S)-10-Hydroxy-6,11,11-trimethyl-1,2,5,6-tetrahydro-4H-2,6-methano-benzo[d]azocine-3-carbonyl]-phenyl}-ethanone]	3680 nM
CC1(C)[C@H]2Cc3ccccc3[C@]1(C)CCN2C(=O)c1ccc2c(c1)CC(=O)N2 [Example 298, 5-[(2R,6S)-6,11,11-Trimethyl-1,2,5,6-tetrahydro-4H-2,6-methano-benzo[d]azocine-3-carbonyl]-1,3-dihydro indol-2-one]	99 nM
CC1(C)[C@H]2Cc3c(O)cccc3[C@]1(C)CCN2C(=O)c1ccc(C#N)cc1 [Example 13]	1610 nM
CC(C)(O)c1ccc(C(=O)N2CC[C@@]3(C)c4ccccc4C[C@@H]2C3(C)C)cc1 [Example 306, [4-(1-Hydroxy-1-methyl-ethyl)-phenyl]-[(2R,6S)-6,11,11-trimethyl-1,2,5,6-tetrahydro-4H-2,6-methano-benzo[d]azocin-3-yl]-methanone]	978 nM
CCCC12CCN(C(=O)c3ccc4nc[nH]c4c3)C(Cc3ccc(O)cc31)C2 (centres unmarked) [Example 88, (3H-Benzoimidazol-5-yl)-(8-hydroxy-6-propyl-1,2,5,6-tetrahydro-4H-2,6-methano-benzo[d]azocin-3-yl)-methanone]	171 nM
CC12CCN(C(=O)c3ccc4nc[nH]c4c3)C(Cc3cc(N)ccc31)C2(C)C (centres unmarked) [Example 141, (9-Amino-6,11,11-trimethyl-1,2,5,6-tetrahydro-4H-2,6-methano-benzo[d]azocin-3-yl)-(3H-benzoimidazol-5-yl)-methanone]	59 nM
CC1(C)C2Cc3ccc(O)cc3C1(c1ccccc1)CCN2C(=O)c1ccc2nc[nH]c2c1 (centres unmarked) [Example 150, (3H-Benzoimidazol-5-yl)-(8-hydroxy-11,11-dimethyl-6-phenyl-1,2,5,6-tetrahydro-4H-2,6-methano-benzo[d]azocin-3-yl)-methanone]	438 nM
Cc1ccc2[nH]cc(C(=O)N3CC[C@@]4(C)c5cccc(O)c5C[C@@H]3C4(C)C)c2c1 [Example 248, [(2R,6S)-10-Hydroxy-6,11,11-trimethyl-1,2,5,6-tetrahydro-4H-2,6-methano-benzo[d]azocin-3-yl)-(5-methyl-1H-indol-3-yl)-methanone]	1510 nM
COc1cc2c(cc1C)C[C@@H]1N(C(=O)c3ccc4nc[nH]c4c3)CC[C@@]2(C)C1(C)C (stereo in doubt) [Example 61, (3H-Benzoimidazol-5-yl)-[(2S,6R)-8-methoxy-6,9,11,11-tetramethyl-1,2,5,6-tetrahydro-4H-2,6-methano-benzo[d]azocin-3-yl]-methanone]	798 nM
CC1(O)CCN(Cc2ccc(C(=O)N3CC[C@@]4(C)c5cccc(O)c5C[C@@H]3C4(C)C)cc2)CC1 [Example 185, [4-(4-Hydroxy-4-methyl-piperidin-1-ylmethyl)-phenyl]-[(2R,6S)-10-hydroxy-6,11,11-trimethyl-1,2,5,6-tetrahydro-4H-2,6 methano-benzo[d]azocin-3-yl]-methanone]	5370 nM
CC1(C)[C@H]2Cc3c(C#N)cccc3[C@]1(C)CCN2C(=O)c1ccc2nc[nH]c2c1 [Example 93, (2R,6S)-3-(3H-Benzoimidazole-5-carbonyl)-6,11,11-trimethyl-1,2,3,4,5,6-hexahydro-2,6-methano-benzo[d]azocine-10-carbonitrile]	2060 nM
COc1cc2c(cc1OC)C1(C)CCN(C(=O)c3ccc4nc[nH]c4c3)C(C2)C1(C)C (centres unmarked) [Example 72, (3H-Benzoimidazol-5-yl)-(8,9-dimethoxy-6,11,11-trimethyl-1,2,5,6-tetrahydro-4H-2,6-methano-benzo[d]azocin-3-yl)-methanone]	148 nM
CC(=O)Nc1cccc(C(=O)N2CC[C@@]3(C)c4cccc(O)c4C[C@@H]2C3(C)C)c1 [Example 9, N-{3-[(2R,6S)-10-Hydroxy-6,11,11-trimethyl-1,2,5,6-tetrahydro-4H-2,6-methano-benzo[d]azocine-3-carbonyl]-phenyl}-acetamide]	1980 nM
Cc1noc(C)c1C(=O)N1CC[C@@]2(C)c3cccc(O)c3C[C@@H]1C2(C)C [Example 121]	4120 nM
CC12CCN(C(=O)c3ccc4ncsc4c3)C(Cc3ccc(O)cc31)C2 (centres unmarked) [Example 92, benzothiazol-6-yl-(8-hydroxy-6-methyl-1,2,5,6-tetrahydro-4H-2,6-methano-benzo[d]azocin-3-yl)-methanone]	1110 nM
Cc1ccoc1C(=O)N1CC[C@@]2(C)c3cc(O)ccc3C[C@@H]1[C@@H]2C [Example 112, [(2R,6R,11R)-8-Hydroxy-6,11-dimethyl-1,2,5,6-tetrahydro-4H-2,6-methano-benzo[d]azocin-3-yl]-(3-methyl-furan-2-yl)-methanone]	1230 nM
CC(=O)NCc1ccc2c(c1)CC1N(C(=O)c3ccc4nc[nH]c4c3)CCC2(C)C1(C)C (centres unmarked) [Example 178, N-[3-(3H-Benzoimidazole-5-carbonyl)-6,11,11-trimethyl-1,2,3,4,5,6-hexahydro-2,6-methano-benzo[d]azocin-9-ylmethyl]-acetamide]	159 nM
Cc1occc1C(=O)N1CC[C@@]2(C)c3cccc(O)c3C[C@@H]1C2(C)C [Example 180, [(2R,6S)-10-Hydroxy-6,11,11-trimethyl-1,2,5,6-tetrahydro-4H-2,6-methano-benzo[d]azocin-3-yl]-(2-methyl-furan-3-yl)-methanone]	1320 nM
Cc1nccc(-c2ccc3c(c2)[C@]2(C)CCN(C(=O)c4ccc5nc[nH]c5c4)[C@H](C3)[C@H]2C)n1 [Example 262, (3H-Benzoimidazol-5-yl)-[(2R,6R,11S)-6,11-dimethyl-8-(2-methyl-pyrimidin-4-yl)-1,2,5,6-tetrahydro-4H-2,6-methano-benzo[d]azocin-3-yl]-methanone]	73 nM

From patent US8859580B2 (Boehringer Ingelheim International GmbH, priority 2007, dated 2014)
